Data as given in patent US20160207928A1, “NOVEL COMPOUNDS FOR THE TREATMENT OF CANCER” (BAYER PHARMA AKTIENGESELLSCHAFT, priority 2013, published 2016).

Legend:
human kinase Mps-1 = target: T1, human kinase Mps-1 (Homo sapiens, UniProt P33981); assay: Mps-1 kinase assay (TR-FRET, 10 μM ATP); assay type: biochemical; conditions: N-terminally GST-tagged human full length recombinant Mps-1, read-out: Mps-1 Inhibition, IC50 (Assay with 10 μM ATP)
T1 construct: N-terminally GST-tagged human full length recombinant Mps-1 kinase; purchased Invitrogen, Karslruhe, Germany PV4071
T1 sequence (P33981 1-857): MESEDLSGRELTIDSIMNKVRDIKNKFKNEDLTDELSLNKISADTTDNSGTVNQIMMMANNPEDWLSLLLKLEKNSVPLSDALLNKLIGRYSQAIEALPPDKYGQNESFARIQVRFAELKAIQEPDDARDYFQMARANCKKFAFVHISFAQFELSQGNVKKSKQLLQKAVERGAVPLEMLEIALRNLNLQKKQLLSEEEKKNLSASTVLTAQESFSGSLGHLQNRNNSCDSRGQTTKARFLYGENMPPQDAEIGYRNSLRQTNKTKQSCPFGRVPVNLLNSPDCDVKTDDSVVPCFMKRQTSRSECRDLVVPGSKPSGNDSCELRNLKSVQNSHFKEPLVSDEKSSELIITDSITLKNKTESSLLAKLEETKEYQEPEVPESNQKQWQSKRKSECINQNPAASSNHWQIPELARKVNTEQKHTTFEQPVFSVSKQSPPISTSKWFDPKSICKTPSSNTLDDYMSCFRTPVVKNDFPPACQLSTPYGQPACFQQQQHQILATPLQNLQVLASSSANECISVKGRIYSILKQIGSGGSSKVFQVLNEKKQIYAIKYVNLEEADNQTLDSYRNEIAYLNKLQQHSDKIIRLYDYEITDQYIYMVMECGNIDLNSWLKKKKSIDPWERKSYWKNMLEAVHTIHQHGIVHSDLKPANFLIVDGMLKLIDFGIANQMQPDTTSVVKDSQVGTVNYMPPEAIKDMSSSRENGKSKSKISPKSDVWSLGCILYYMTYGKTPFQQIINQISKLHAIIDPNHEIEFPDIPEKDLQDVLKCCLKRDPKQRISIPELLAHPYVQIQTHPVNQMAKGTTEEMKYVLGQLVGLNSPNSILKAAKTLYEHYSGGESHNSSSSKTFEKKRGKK
Description: The human kinase Mps-1 phosphorylates a biotinylated substrate peptide. Detection of the phosphorylated product is achieved by time-resolved fluorescence resonance energy transfer (TR-FRET) from Europium-labelled anti-phospho-Serine/Threonine antibody as donor to streptavidin Labelled with cross-linked allophycocyanin (SA-XLent) as acceptor. Compounds are tested for their inhibition of the kinase activity.
N-terminally GST-tagged human full length recombinant Mps-1 kinase (purchased from Invitrogen, Karslruhe, Germany, cat. no PV4071) was used. As substrate for the kinase reaction a biotinylated peptide of the amino-acid sequence PWDPDDADITEILG (C-terminus in amide form, purchased from Biosynthan GmbH, Berlin) was used.
For the assay 50 nl of a 100-fold concentrated solution of the test compound in DMSO was pipetted into a black low volume 384 well microtiter plate (Greiner Bio-One, Frickenhausen, Germany), 2 μl of a solution of Mps-1 in assay buffer [0.1 mM sodium-ortho-vanadate, 10 mM MgCl2, 2 mM DTT, 25 mM Hepes pH 7.7, 0.05% BSA, 0.001% Pluronic F-127] were added and the mixture was incubated for 15 min at 22° C. to allow pre-binding of the test compounds to Mps-1 before the start of the kinase reaction. Then the kinase reaction was started by the addition of 3 μl of a solution of […] (ATP, 16.7 μM=>final conc. in the 5 μl assay volume is 10 μM) and peptide substrate (1.67 μM=>final conc. in the 5 μl assay volume is 1 μM) in assay buffer and the resulting mixture was incubated for a reaction time of 60 min at 22° C. The concentration of Mps-1 in the assay was adjusted to the activity of the enzyme lot and was chosen appropriate to have the assay in the linear range, typical enzyme concentrations were in the range of about 1 nM (final conc. in the 5 μl assay volume). The reaction was stopped by the addition of 3 μl of a solution of HTRF detection reagents (100 mM Hepes pH 7.4, 0.1% BSA, 40 mM EDTA, 140 nM Streptavidin-XLent [#61GSTXLB, Fa. Cis Biointernational, Marcoule, France], 1.5 nM anti-phospho(Ser/Thr)-Europium-antibody [#AD0180, PerkinElmer LAS, Rodgau-Jügesheim, Germany].
The resulting mixture was incubated 1 h at 22° C. to allow the binding of the phosphorylated peptide to the anti-phospho(Ser/Thr)-Europium-antibody. Subsequently the amount of phosphorylated substrate was evaluated by measurement of the resonance energy transfer from the Europium-labelled anti-phospho(Ser/Thr) antibody to the Streptavidin-XLent. Therefore, the fluorescence emissions at 620 nm and 665 nm after excitation at 350 nm was measured in a Viewlux TR-FRET reader (PerkinElmer LAS, Rodgau-Jügesheim, Germany). The “blank-corrected normalized ratio” (a Viewlux specific readout, similar to the traditional ratio of the emissions at 665 nm and at 622 nm, in which blank and Eu-donor crosstalk are subtracted from the 665 nm signal before the ratio is calculated) was taken as the measure for the amount of phosphorylated substrate. The data were normalised (enzyme reaction without inhibitor=0% inhibition, all other assay components but no enzyme=100% inhibition).

[1] = tested on: HeLa human cervical tumor cells; assay: HeLa cell proliferation assay (crystal violet staining); assay type: cell-based; conditions: 96 h, 4 days incubation, read-out: Inhibition of cell proliferation, cell Line: HeLa IC50
Description: Cultivated tumor cells (MCF7, hormone dependent human mammary carcinoma cells, ATCC HTB22; NCI-H460, human non-small cell lung carcinoma cells, ATCC HTB-177; DU 145, hormone-independent human prostate carcinoma cells, ATCC HTB-81; HeLa-MaTu, human cervical carcinoma cells, EPO-GmbH, Berlin; HeLa-MaTu-ADR, multidrug-resistant human cervical carcinoma cells, EPO-GmbH, Berlin; HeLa human cervical tumor cells, ATCC CCL-2; B16F10 mouse melanoma cells, ATCC CRL-6475) were plated at a density of 5000 cells/well (MCF7, DU145, HeLa-MaTu-ADR), 3000 cells/well (NCI-H460, HeLa-MaTu, HeLa), or 1000 cells/well (B16F10) in a 96-well multititer plate in 200 μl of their respective growth medium supplemented 10% fetal calf serum. After 24 hours, the cells of one plate (zero-point plate) were stained with crystal violet (see below), while the medium of the other plates was replaced by fresh culture medium (200 μl), to which the test substances were added in various concentrations (0 μM, as well as in the range of 0.01-30 μM; the final concentration of the solvent dimethyl sulfoxide was 0.5%). The cells were incubated for 4 days in the presence of test substances. Cell proliferation was determined by staining the cells with crystal violet: the cells were fixed by adding 20 μl/measuring point of an 11% glutaric aldehyde solution for 15 minutes at room temperature. After three washing cycles of the fixed cells with water, the plates were dried at room temperature. The cells were stained by adding 100 μl/measuring point of a 0.1% crystal violet solution (pH 3.0). After three washing cycles of the stained cells with water, the plates were dried at room temperature. The dye was dissolved by adding 100 μl/measuring point of a 10% acetic acid solution. The extinction was determined by photometry at a wavelength of 595 nm. The change of cell number, in percent, was calculated by normalization of the measured values to the extinction values of the zero-point plate (=0%) and the extinction of the untreated (0 μm) cells (=100%). The IC50 values were determined by means of a 4 parameter fit using the company's own software.
The compounds of the present invention are characterized by the following IC50 values, determined in a HeLa cell proliferation assay (as described above): […]

With COc1cc(S(C)(=O)=O)ccc1Nc1nc2cc(-c3ccc(NC(=O)[C@H](C)c4ccc(F)cc4)cc3)ccn2n1 [Example 5.1, (2R)-2-(4-fluorophenyl)-N-[4-(2-{[2-methoxy-4-(methylsulfonyl)phenyl]amino}[1,2,4]triazolo[1,5-a]pyridin-7-yl)phenyl]propanamide] the IC50 (human kinase Mps-1) was ≤ 1 nM and the IC50 [1] was 118 nM.
In the case of COc1cc(C(=O)N2CCC2)ccc1Nc1nc2cc(-c3ccc(NC(=O)[C@H](C)c4ccc(F)cc4)cc3)ccn2n1 [Example 5.6, (2R)—N-[4-(2-{[4-(azetidin-1-ylcarbonyl)-2-methoxyphenyl]amino}[1,2,4]triazolo[1,5-a]pyridin-7-yl)phenyl]-2-(4-fluorophenyl)propanamide], the IC50 (human kinase Mps-1) is reported as ≤ 1 nM and the IC50 [1] is reported as 57 nM.
In the case of C[C@@H](C(=O)Nc1ccc(-c2ccn3nc(Nc4ccc(C(=O)N5CC(F)C5)cc4OCC(F)(F)F)nc3c2)cc1)c1ccc(F)cc1 [Example 5.3, (2R)—N-{4-[2-({4-[(3-fluoroazetidin-1-yl)carbonyl]-2-(2,2,2-trifluoroethoxy)phenyl}amino)[1,2,4]triazolo[1,5-a]pyridin-7-yl]phenyl}-2-(4-fluorophenyl)propanamide], the IC50 (human kinase Mps-1) is reported as ≤ 1 nM and the IC50 [1] is reported as 13 nM.
In the case of COc1cc(C(=O)N2CC(F)C2)ccc1Nc1nc2cc(-c3ccc(NC(=O)[C@H](C)c4ccc(F)cc4)cc3)ccn2n1 [Example 5.2, (2R)—N-{4-[2-({4-[(3-fluoroazetidin-1-yl)carbonyl]-2-methoxyphenyl}amino)[1,2,4]triazolo[1,5-a]pyridin-7-yl]phenyl}-2-(4-fluorophenyl)propanamide], the IC50 (human kinase Mps-1) is reported as ≤ 1 nM and the IC50 [1] is reported as 24 nM.
C[C@@H](C(=O)Nc1ccc(-c2ccn3nc(Nc4ccc(S(C)(=O)=O)cc4OCC(F)(F)F)nc3c2)cc1)c1ccc(F)cc1 [Example 5.5, (2R)-2-(4-fluorophenyl)-N-[4-(2-{[4-(methylsulfonyl)-2-(2,2,2-trifluoroethoxy)phenyl]amino}[1,2,4]triazolo[1,5-a]pyridin-7-yl)phenyl]propanamide] was tested, and the IC50 (human kinase Mps-1) was ≤ 1 nM and the IC50 [1] was 82 nM.
COc1cc(S(C)(=O)=O)ccc1Nc1cn2nc(-c3ccc(NC(=O)[C@H](C)c4ccc(F)cc4)cc3)ccc2n1 [Example 6.1, (2R)-2-(4-fluorophenyl)-N-[4-(2-{[2-methoxy-4-(methylsulfonyl)phenyl]amino}imidazo[1,2-b]pyridazin-6-yl)phenyl]propanamide] was tested, and the IC50 (human kinase Mps-1) was ≤ 1 nM and the IC50 [1] was 501 nM.
